Where two headings read alike, the source gives them in different places.
What was measured:
rat P2X7 = rat P2X7 (Rattus norvegicus (Rat), UniProt Q64663); experiment: P2X7 antagonism in recombinant rat P2X7 cells (column headed P2X7 Rat IC50); format: binding
P2X7 [1] = target: T1, P2X7 (Homo sapiens (Human), UniProt Q99572); experiment: P2X7 antagonism in human whole blood, IL-1β release (LPS + Bz-ATP, ELISA); format: cell-based; details: LPS 30 ng/ml + Bz-ATP 1 mM
P2X7 [2] = target: T1, P2X7; experiment: Radioligand binding ([3H]A-804598) to membranes of human P2X7-1321N1 cells; details: human P2X7-1321N1 membranes, tracer tritiated A-804598, 1 hour at 4° C.
Experimental: P2X7 Antagonism in Recombinant Human P2X7 Cells or Recombinant Rat P2X7 Cells:
human or rat P2X7-1321N1 cells were collected and frozen @ −80° C. On the day of the experiment, cell membrane preparations were made according to standard published methods. […] The compound can be prepared as described in the literature. […] The assay was terminated by filtration (GF/B filters pre-soaked with 0.3% PEI) and washed with washing buffer (Tris-HCl 50 mM). The IC50 generated in the binding assay was corrected for tracer concentration and affinity of the tracer to derive at the affinity (Ki) of the test compounds. The data are presented in Table 2 under the headings: P2X7 human Ki (μM) and P2X7 rat Ki (μM). Data are analyzed and graphed on Graphpad Prism 5. For analysis, each concentration point is averaged from triplicate values and the averaged values are plotted on Graphpad Prism.

P2X7 [3] = target: T1, P2X7; experiment: P2X7 antagonism in human peripheral blood mononuclear cells (PBMCs), IL-1β release (LPS + Bz-ATP, ELISA); format: cell-based; details: P2X7, 10 μM test compound, LPS 30 ng/ml + Bz-ATP 0.5 mM, read-out: PBMC @10 μM (% control)
[4] = read-out: Human Whole Blood IC50

Chain of rat P2X7 (Q64663 whole entry): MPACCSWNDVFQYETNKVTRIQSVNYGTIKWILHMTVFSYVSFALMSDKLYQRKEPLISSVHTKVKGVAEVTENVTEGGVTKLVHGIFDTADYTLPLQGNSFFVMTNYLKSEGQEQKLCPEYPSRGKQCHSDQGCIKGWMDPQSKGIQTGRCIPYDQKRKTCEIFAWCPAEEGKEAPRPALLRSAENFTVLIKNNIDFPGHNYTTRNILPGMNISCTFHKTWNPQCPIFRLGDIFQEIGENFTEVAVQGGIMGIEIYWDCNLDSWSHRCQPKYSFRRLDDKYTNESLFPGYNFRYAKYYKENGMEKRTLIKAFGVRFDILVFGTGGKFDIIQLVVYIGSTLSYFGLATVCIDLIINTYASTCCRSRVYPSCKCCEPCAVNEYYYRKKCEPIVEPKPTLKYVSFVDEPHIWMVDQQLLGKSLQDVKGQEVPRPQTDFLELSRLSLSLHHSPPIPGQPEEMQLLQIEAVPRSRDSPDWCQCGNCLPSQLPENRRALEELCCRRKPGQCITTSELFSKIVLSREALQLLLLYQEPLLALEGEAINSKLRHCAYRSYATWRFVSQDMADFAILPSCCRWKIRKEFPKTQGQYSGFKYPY
T1 sequence (Q99572 whole entry): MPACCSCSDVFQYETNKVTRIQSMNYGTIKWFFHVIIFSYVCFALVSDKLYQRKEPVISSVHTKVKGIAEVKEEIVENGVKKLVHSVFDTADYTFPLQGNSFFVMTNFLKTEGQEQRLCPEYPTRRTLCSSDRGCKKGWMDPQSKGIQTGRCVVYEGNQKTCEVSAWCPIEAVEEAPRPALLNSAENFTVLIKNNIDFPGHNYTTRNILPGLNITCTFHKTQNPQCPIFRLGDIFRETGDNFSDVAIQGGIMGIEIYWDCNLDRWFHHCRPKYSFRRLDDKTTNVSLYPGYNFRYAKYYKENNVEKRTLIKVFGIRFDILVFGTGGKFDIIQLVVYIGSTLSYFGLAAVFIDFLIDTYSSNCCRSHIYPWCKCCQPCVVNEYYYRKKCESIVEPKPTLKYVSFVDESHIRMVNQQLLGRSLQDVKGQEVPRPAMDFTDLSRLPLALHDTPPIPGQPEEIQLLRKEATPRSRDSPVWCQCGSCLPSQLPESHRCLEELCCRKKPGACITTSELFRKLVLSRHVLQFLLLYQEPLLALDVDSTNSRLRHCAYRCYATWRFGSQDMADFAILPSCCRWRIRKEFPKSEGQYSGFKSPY

Compound | IC50 (rat P2X7) [µM] | IC50 (P2X7 [1]; Human Whole Blood IC50 (μM)) [µM] | Ki (P2X7 [2]) [µM] | remaining activity at 10 µM (P2X7 [3]) [%] | IC50 (P2X7 [1]; [4]) [µM]
Cc1nc(-c2ncccn2)c2c(n1)[C@H]1CCC[C@@H](C2)N1C(=O)c1cccc(C(F)(F)F)c1Cl [Example 41, (2-chloro-3-(trifluoromethyl)phenyl)((6S,10R)-2-methyl-4-(pyrimidin-2-yl)-5,6,7,8,9,10-hexahydro-6,10-epiminocycloocta[d]pyrimidin-11-yl)methanone] | 0.0158 | 0.021 | 0.0295 | -5.6 | –
Cc1nc(-c2ccn[nH]2)c2c(n1)[C@H]1CCC[C@@H](C2)N1C(=O)c1ccnc(C(F)(F)F)c1F [Example 27, (3-fluoro-2-(trifluoromethyl)pyridin-4-yl)((6S,10R)-2-methyl-4-(1H-pyrazol-5-yl)-5,6,7,8,9,10-hexahydro-6,10-epiminocycloocta[d]pyrimidin-11-yl)methanone] | 0.132 | – | 0.151 | -10.2 | 0.172
Cc1nc(-c2ccn[nH]2)c2c(n1)[C@H]1CCC[C@@H](C2)N1C(=O)c1ccnc(C(F)(F)F)c1Cl [Example 24, (3-chloro-2-(trifluoromethyl)pyridin-4-yl)((6S,10R)-2-methyl-4-(1H-pyrazol-5-yl)-5,6,7,8,9,10-hexahydro-6,10-epiminocycloocta[d]pyrimidin-11-yl)methanone] | 0.0192 | 0.038 | 0.126 | 2.4 | –
Cc1nc(-c2ccn[nH]2)c2c(n1)[C@H]1CCC[C@@H](C2)N1C(=O)c1cccc(C(F)(F)F)c1C [Example 21, (2-methyl-3-(trifluoromethyl)phenyl)((6S,10R)-2-methyl-4-(1H-pyrazol-5-yl)-5,6,7,8,9,10-hexahydro-6,10-epiminocycloocta[d]pyrimidin-11-yl)methanone] | 0.0332 | 0.026 | 0.0316 | -26.4 | –
Cc1nc(-c2ccccn2)c2c(n1)[C@H]1CCC[C@@H](C2)N1C(=O)c1cccc(Cl)c1Cl [Example 65, (2,3-dichlorophenyl)((6S,10R)-2-methyl-4-(pyridin-2-yl)-5,6,7,8,9,10-hexahydro-6,10-epiminocycloocta[d]pyrimidin-11-yl)methanone] | 0.184 | 0.042 | 0.049 | 0.1 | –
Cc1nc(-c2ccc(F)cc2)c2c(n1)[C@H]1CCC[C@@H](C2)N1C(=O)c1cccc(C(F)(F)F)c1Cl [Example 51, (2-chloro-3-(trifluoromethyl)phenyl)((6S,10R)-4-(4-fluorophenyl)-2-methyl-5,6,7,8,9,10-hexahydro-6,10-epiminocycloocta[d]pyrimidin-11-yl)methanone] | 0.0166 | 0.043 | 0.0447 | -3 | –
Cc1nc(-c2ccc(F)cc2)c2c(n1)[C@H]1CCC[C@@H](C2)N1C(=O)c1cccc(C(F)(F)F)c1C [Example 53, ((6S,10R)-4-(4-fluorophenyl)-2-methyl-5,6,7,8,9,10-hexahydro-6,10-epiminocycloocta[d]pyrimidin-11-yl)(2-methyl-3-(trifluoromethyl)phenyl)methanone] | 0.191 | – | 0.0316 | 0 | 0.131
Cc1nc(-c2ncccn2)c2c(n1)[C@H]1CCC[C@@H](C2)N1C(=O)c1cccc(Cl)c1Cl [Example 45, (2,3-dichlorophenyl)((6S,10R)-2-methyl-4-(pyrimidin-2-yl)-5,6,7,8,9,10-hexahydro-6,10-epiminocycloocta[d]pyrimidin-11-yl)methanone] | 0.128 | 0.064 | 0.0251 | -14.2 | –

From patent US10150766B2, “P2X7 modulators” (Jansssen Pharmaceutica NV, priority 2014, dated 2018)
